Patent publication US6737434B2, “Imidazole derivatives or their salts” (SSP Co., Ltd., priority 2000, dated 2004)

System: human G-CSF-dependent cell strain (BAF/hGCSFR)
Assay: Induction of cell growth of a human G-CSF-dependent cell strain (WST-1 absorbance), expressed as human-G-CSF equivalent concentration
Type: cell-based
Settings: 48 hours incubation, mean±standard error, n=5
Method: Cloning of human G-CSF receptor gene was performed through RT-PCR by using primers created on the basis of the human G-CSF receptor gene using a human spleen cDNA library. The thus cloned human G-CSF receptor gene inserted to a multicloning site of an expression vector. Subsequently, the gene-inserted expression vector was transformed into E. coli for multiplication, and the expression vector was extracted. An aliquot of the expression vector (20 μg) was added to host cells (BAF/B03) prepared to 5×10^7 cells/800 μL K-PBS (30.8 mM NaCl, 120.7 mM KCl, 8.1 mM Na2HPO4, 1.46 mM KH2PO4, 5 mM MgCl2), followed by standing still at 4° C. for 15 minutes. For gene transfer, electroporation was performed at a voltage of 280 V and a capacitance of 950 μF. After completion of gene transfer, the cells were suspended in a DMEM medium ((+) 10% FCS) containing recombinant human G-CSF (rhG-CSF, 20 ng/mL) and puromycin (2 μg/mL), whereby a human G-CSF dependent cell strain was created.
For studying the cell multiplication ability with respect to rhG-CSF, the following procedure was carried out. Briefly, cells in which the human G-CSF receptor gene had been inserted (BAF/hGCSFR) were collected, and washed with PBS(−). Subsequently, the cells were suspended in DMEM medium, and the medium containing the cells was prepared to the wells of a 96-well plate (5×10^4 cells/well). Then, rhG-CSF was added to the wells (0, 0.006, 0.025, 0.1, 0.4 ng/mL), and the cells in the wells were cultured under 5% CO2 for 48 hours at 37° C. After completion of incubation, a solution of WST-1/1-methoxy PMS was added to the wells (final concentration: 5 mM), and the cells in the wells were cultured in a CO2 incubator for 2 hours. After completion of incubation, the absorbance of the cultured solution was measured at a wavelength of 450 nm. The results are shown in FIG. 1 (mean±standard error, n=5).
A solution prepared by diluting a compound with DMEM was added to the wells of a 96-well microplate (10 μL/well). The human G-CSF-dependent cell strain was added to the wells (5.0×10^4 cells/100 μL), followed by incubation for 48 hours at 37° C. After completion of incubation, a solution of WST-1/1-methoxy PMS (final concentration: 5 mM) was added to the wells, followed by incubation in a CO2 incubator for 2 hours. After completion of incubation, the absorbance was measured at a wavelength of 450 nm. The results are shown in FIG. 2 (mean±standard error, n=5).
Using the test data obtained from Test Example 1, human-G-CSF equivalent concentrations (ng/mL) corresponding to respective compound concentrations employed in Test Example 2 were calculated. The results are shown in Table 1 (mean±standard error, n=5).

CCCCCCCOc1ccc(Cl)cc1C(C)(O)Cn1ccnc1 (stereo not drawn) [Compound (1-2), 2-(5-Chloro-2-(n-heptyloxy)phenyl)-1-(1H-1-imidazolyl)-2-propanol]
human-G-CSF equivalent concentration (compound conc. 10^−6 M): 0.049 ± 0.0004 ng/mL
human-G-CSF equivalent concentration (compound conc. 10^−7 M): 0.037 ± 0.0003 ng/mL
human-G-CSF equivalent concentration (compound conc. 10^−8 M): 0.013 ± 0.0001 ng/mL

CCCCCCCCOc1ccc(Cl)cc1C(C)(O)Cn1ccnc1 (stereo not drawn) [Compound (1-3), 2-(5-Chloro-2-(n-octyloxy)phenyl)-1-(1H-1-imidazolyl)-2-propanol]
human-G-CSF equivalent concentration (compound conc. 10^−6 M): 0.057 ± 0.0005 ng/mL
human-G-CSF equivalent concentration (compound conc. 10^−7 M): 0.057 ± 0.0005 ng/mL
human-G-CSF equivalent concentration (compound conc. 10^−8 M): 0.018 ± 0.0001 ng/mL

CCCCCCCCCOc1ccc(Cl)cc1C(C)(O)Cn1ccnc1 (stereo not drawn) [Compound (1-1), 2-(5-Chloro-2-(n-nonyloxy)phenyl)-1-(1H-1-imidazolyl)-2-propanol]
human-G-CSF equivalent concentration (compound conc. 10^−6 M): 0.131 ± 0.001 ng/mL
human-G-CSF equivalent concentration (compound conc. 10^−7 M): 0.032 ± 0.0003 ng/mL
human-G-CSF equivalent concentration (compound conc. 10^−8 M): 0.015 ± 0.0001 ng/mL
